Measurements taken from ChEMBL document CHEMBL1158870, “Antitumor agents. 180. Chemical Studies and cytotoxic evaluation of cumingianosides and cumindysoside A, antileukemic triterpene glucosides with a 14,18-cycloapotirucallane skeleton” (1997).

How the values were obtained:
U-251 = assay: Cytotoxicity against human U251 cells by SRB assay; format: functional
[1] = Cytotoxicity against human 786-O cells by SRB assay; format: functional; conditions: 786-0
SK-MEL-28 = assay: Cytotoxicity against human SK-MEL-28 cells by SRB assay; format: functional
UO-31 = assay: Cytotoxicity against human UO31 cells by SRB assay; format: functional
SF-295 = assay: Cytotoxicity against human SF295 cells by SRB assay; format: functional
EKVX = assay: Cytotoxicity against human EKVX cells by SRB assay; format: functional
[2] = Cytotoxicity against human prostate cancer cells by SRB assay; format: functional; conditions: Cancer cell lines
RXF 393 = assay: Cytotoxicity against human RXF393 cells by SRB assay; format: functional
UACC-257 = assay: Cytotoxicity against human UACC257 cells by SRB assay; format: functional
MDA-N = assay: Cytotoxicity against human MDA-N cells by SRB assay; format: functional
MDA-MB-231 = assay: Cytotoxicity against human MDA-MB-231 cells by SRB assay; format: functional
SR = assay: Cytotoxicity against human SR cells by SRB assay; format: functional
[3] = Cytotoxicity against human Hs 578T cells by SRB assay; format: functional
BT-549 = assay: Cytotoxicity against human BT549 cells by SRB assay; format: functional
UACC-62 = assay: Cytotoxicity against human UACC62 cells by SRB assay; format: functional
SF-268 = assay: Cytotoxicity against human SF268 cells by SRB assay; format: functional
A549 = assay: Cytotoxicity against human A549 cells by SRB assay; format: functional
NCI-H226 = assay: Cytotoxicity against human NCI-H226 cells by SRB assay; format: functional
RPMI-8226 = assay: Cytotoxicity against human RPMI8226 cells by SRB assay; format: functional
[4] = Cytotoxicity against human Colon cancer cells by SRB assay; format: functional; conditions: Cancer cell lines
CCRF-CEM = assay: Cytotoxicity against human CCRF-CEM cells by SRB assay; format: functional
ACHN = assay: Cytotoxicity against human ACHN cells by SRB assay; format: functional
[5] = Cytotoxicity against human breast cancer cells by SRB assay; format: functional; conditions: Cancer cell lines
OVCAR-5 = assay: Cytotoxicity against human OVCAR5 cells by SRB assay; format: functional
HCC 2998 = assay: Cytotoxicity against human HCC2998 cells by SRB assay; format: functional
[6] = Cytotoxicity against human melanoma cells by SRB assay; format: functional; conditions: Melanoma cell
[7] = Cytotoxicity against human CNS cancer cells by SRB assay; format: functional; conditions: Cancer cell lines
Malme-3M = assay: Cytotoxicity against human MALME-3M cells by SRB assay; format: functional
SN12C = assay: Cytotoxicity against human SN12C cells by SRB assay; format: functional
NSCLC = assay: Cytotoxicity against human NSCLC cells by SRB assay; format: functional
HOP-62 = assay: Cytotoxicity against human HOP62 cells by SRB assay; format: functional
KM12 = assay: Cytotoxicity against human KM12 cells by SRB assay; format: functional
NCI-H322M = assay: Cytotoxicity against human NCI-H322M cells by SRB assay; format: functional
M14 = assay: Cytotoxicity against human M14 cells by SRB assay; format: functional
OVCAR-4 = assay: Cytotoxicity against human OVCAR4 cells by SRB assay; format: functional
SK-MEL-2 = assay: Cytotoxicity against human SK-MEL-2 cells by SRB assay; format: functional
[8] = Cytotoxicity against human ovarian cancer cells by SRB assay; format: functional; conditions: Cancer cell lines
MCF7 = assay: Cytotoxicity against human MCF7 cells by SRB assay; format: functional
SNB-75 = assay: Cytotoxicity against human SNB75 cells by SRB assay; format: functional
[9] = Cytotoxicity against human HL60(TB) cells by SRB assay; format: functional, HL-60(TB); conditions: HL-60
Leukemia cell = assay: Cytotoxicity against human Leukemia cells by SRB assay; format: functional
OVCAR-3 = assay: Cytotoxicity against human OVCAR-3 cells by SRB assay; format: functional
IGROV-1 = assay: Cytotoxicity against human IGROV1 cells by SRB assay; format: functional
MOLT-4 = assay: Cytotoxicity against human MOLT4 cells by SRB assay; format: functional
CAKI-1 = assay: Cytotoxicity against human Caki1 cells by SRB assay; format: functional
[10] = Cytotoxicity against human MCF7/ADR cells by SRB assay; format: functional; conditions: NCI/ADR-RES
LOX IMVI = assay: Cytotoxicity against human LOXIMVI cells by SRB assay; format: functional
NCI-H460 = assay: Cytotoxicity against human NCI-H460 cells by SRB assay; format: functional
K562 = assay: Cytotoxicity against human K562 cells by SRB assay; format: functional
PC-3 = assay: Cytotoxicity against human PC3 cells by SRB assay; format: functional
[11] = Cytotoxicity against human renal cancer cells by SRB assay; format: functional; conditions: Cancer cell lines
OVCAR-8 = assay: Cytotoxicity against human OVCAR8 cells by SRB assay; format: functional
NCI-H522 = assay: Cytotoxicity against human NCI-H522 cells by SRB assay; format: functional
SW-620 = assay: Cytotoxicity against human SW620 cells by SRB assay; format: functional
NCI-H23 = assay: Cytotoxicity against human NCI-H23 cells by SRB assay; format: functional
A498 = assay: Cytotoxicity against human A498 cells by SRB assay; format: functional
HOP-92 = assay: Cytotoxicity against human HOP92 cells by SRB assay; format: functional
HCT-15 = assay: Cytotoxicity against human HCT15 cells by SRB assay; format: functional
SK-OV-3 = assay: Cytotoxicity against human SKOV3 cells by SRB assay; format: functional
SK-MEL-5 = assay: Cytotoxicity against human SK-MEL-5 cells by SRB assay; format: functional
HCT-116 = assay: Cytotoxicity against human HCT116 cells by SRB assay; format: functional
T47D = assay: Cytotoxicity against human T47D cells by SRB assay; format: functional
MDA-MB-435 = assay: Cytotoxicity against human MDA-MB-435 cells by SRB assay; format: functional
SNB-19 = assay: Cytotoxicity against human SNB19 cells by SRB assay; format: functional
DU-145 = assay: Cytotoxicity against human DU145 cells by SRB assay; format: functional
COLO 205 = assay: Cytotoxicity against human COLO205 cells by SRB assay; format: functional
HT-29 = assay: Cytotoxicity against human HT29 cells by SRB assay; format: functional

SMILES: CC(=O)OC[C@H]1O[C@@H](O[C@@H]2C[C@H]3C(C)(C)[C@H](OC(C)=O)CC[C@]3(C)[C@H]3CC[C@@H]4[C@]5(CC[C@@]4(C)[C@@]32C)O[C@@H]([C@H](O)C(C)(C)O)C[C@@H]5C)[C@H](O)[C@@H](O)[C@@H]1O
- GI50 (U-251): 10.7 µM
- GI50 [1]: 8.71 µM
- GI50 (SK-MEL-28): 10.2 µM
- GI50 (UO-31): 7.76 µM
- GI50 (SF-295): 6.46 µM
- GI50 (EKVX): 9.55 µM
- TGI [2]: 18.5 µM
- GI50 (RXF 393): 4.07 µM
- GI50 (UACC-257): 11.5 µM
- GI50 (MDA-N): 7.08 µM
- GI50 (MDA-MB-231): 10.2 µM
- GI50 (SR): 3.09 µM
- GI50 [3]: 9.33 µM
- GI50 (BT-549): 12 µM
- GI50 (UACC-62): 6.31 µM
- GI50 (SF-268): 9.33 µM
- GI50 (A549): 5.13 µM
- GI50 (NCI-H226): 10.7 µM
- GI50 (RPMI-8226): 3.39 µM
- TGI [4]: 12.3 µM
- GI50 (CCRF-CEM): 3.16 µM
- GI50 (ACHN): 9.33 µM
- TGI [5]: 21.3 µM
- GI50 (OVCAR-5): 5.13 µM
- GI50 (HCC 2998): 3.63 µM
- TGI (HCC 2998): 15.9 µM
- TGI [6]: 20.7 µM
- TGI [7]: 22.2 µM
- GI50 (Malme-3M): 10.2 µM
- GI50 (SN12C): 11.2 µM
- TGI (NSCLC): 21.8 µM
- GI50 (HOP-62): 14.1 µM
- GI50 (KM12): 2 µM
- TGI (KM12): 7.7 µM
- GI50 (NCI-H322M): 1.7 µM
- GI50 (M14): 5.01 µM
- GI50 (OVCAR-4): 3.39 µM
- GI50 (SK-MEL-2): 6.03 µM
- TGI [8]: 20.1 µM
- GI50 (MCF7): 1.07 µM
- GI50 (SNB-75): 5.13 µM
- GI50 [9]: 2.95 µM
- TGI (Leukemia cell): 17.3 µM
- GI50 (OVCAR-3): 7.08 µM
- GI50 (IGROV-1): 9.55 µM
- GI50 (MOLT-4): 3.16 µM
- GI50 (CAKI-1): 25.7 µM
- GI50 [10]: 16.2 µM
- GI50 (LOX IMVI): 3.63 µM
- GI50 (NCI-H460): 6.61 µM
- GI50 (K562): 4.47 µM
- GI50 (PC-3): 3.8 µM
- TGI [11]: 20.5 µM
- GI50 (OVCAR-8): 9.33 µM
- GI50 (NCI-H522): 7.08 µM
- GI50 (SW-620): 10.5 µM
- TGI (SW-620): 22.9 µM
- GI50 (NCI-H23): 12.9 µM
- GI50 (A498): 11.7 µM
- GI50 (HOP-92): 10 µM
- GI50 (HCT-15): 2.19 µM
- TGI (HCT-15): 5.9 µM
- GI50 (SK-OV-3): 7.94 µM
- GI50 (SK-MEL-5): 10.7 µM
- GI50 (HCT-116): 3.8 µM
- TGI (HCT-116): 15.1 µM
- GI50 (T47D): 5.62 µM
- GI50 (MDA-MB-435): 8.32 µM
- GI50 (SNB-19): 12.6 µM
- GI50 (DU-145): 10.7 µM
- GI50 (COLO 205): 4.07 µM
- TGI (COLO 205): 14.3 µM
- GI50 (HT-29): 1.82 µM
- TGI (HT-29): 4.3 µM
